Structures are written as SMILES.

Consider 22 compounds from patent publication US10329309B2, “3-(3H-imidazo[4,5-B]pyridin-2-yl)-1H-pyrazolo[4,3-B]pyridines and therapeutic uses thereof” (Samumed, LLC, priority 2015, dated 2019).

The subject of experiment [1] is IL-6 (THP-1 cells). Kind of experiment: Inhibition of IL-6 in LPS-stimulated THP-1 monocytes (HTRF). The class given is cell-based. As to conditions: Homo sapiens; for EC50: LPS 500 ng/mL, IL-6 by HTRF; for inhibition at 10 µM: LPS stimulated, IL-6, at 10 μM, read-out: percent inhibition at 10 μM (given for EC50 of >10 μM). Put shortly:
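THP-1 cells, serum-starved in 1% FBS for 24 h, were pre-incubated 2 h with compound (10-point, 1:3 from 10 μM, 0.1% DMSO), then stimulated with 500 ng/mL LPS for 22 h at 37 °C. IL-6 was quantified by HTRF 665/620 ratio. EC50 was fitted from DMSO-normalized data; above 10 μM, % inhibition at 10 μM is given.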

Experiment [2] concerns primary human fibroblasts derived from IPF patients (LL29 cells), α-smooth muscle actin (αSMA). Put plainly: Inhibition of the fibrotic process: TGF-β1-treated primary human fibroblasts from IPF patients, αSMA staining. The conditions noted are these: Fibroblast, 96 h, 4 days; for EC50: LL29 fibroblasts from IPF patients, TGF-β1 20 ng/mL, inhibition of fibrotic process; for inhibition at 10 µM: LL29 fibroblasts, TGF-β1 treated, read-out: percent inhibition at 10 μM (given for EC50 of >10 μM). The class given is cell-based. Put shortly:
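LL29 IPF-patient lung fibroblasts in 1% FBS F12 were given compounds (11-point, 10 μM to […], 0.1% DMSO) plus TGF-β1 20 ng/mL for 4 days at 37 °C. αSMA-positive fraction of live (SYTOX-negative) cells was imaged and normalized to TGF-β1/DMSO wells. EC50 by non-linear regression, or % inhibition at 10 μM if >10 μM.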

Regarding `CC(C)CC(=O)Nc1cncc(-c2ccc3[nH]nc(-c4nc5c(-c6cccc(F)c6)ccnc5[nH]4)c3n2)c1` [Compound 2, N-(5-(3-(7-(3-fluorophenyl)-3H-imidazo[4,5-b]pyridin-2-yl)-1H-pyrazolo [4,3-b]pyridin-5-yl)pyridin-3-yl)-3-methylbutanamide], the EC50 in experiment [1] turned out to be 0.296 µM; in experiment [2] it was 0.292 µM.

For `CN(C)c1cncc(-c2ccc3[nH]nc(-c4nc5c(-c6cccc(F)c6)ccnc5[nH]4)c3n2)c1` [Compound 7, 5-(3-(7-(3-fluorophenyl)-3H-imidazo[4,5-b]pyridin-2-yl)-1H-pyrazolo[4,3-b]pyridin-5-yl)-N,N-dimethylpyridin-3-amine], the EC50 in experiment [1] worked out at 7.5 µM; in experiment [2] it was 2.17 µM.

As to `CN(C)Cc1cncc(-c2ccc3[nH]nc(-c4nc5c(-c6cccc(F)c6)ccnc5[nH]4)c3n2)c1` [Compound 13, 1-(5-(3-(7-(3-fluorophenyl)-3H-imidazo[4,5-b]pyridin-2-yl)-1H-pyrazolo [4,3-b]pyridin-5-yl)pyridin-3-yl)-N,N-dimethylmethanamine], the EC50 was found to be 5.93 µM in experiment [1] and 1.44 µM in experiment [2].

As to `Fc1ccc(-c2ccnc3[nH]c(-c4n[nH]c5ccc(-c6cncc(CN7CCCC7)c6)nc45)nc23)cc1` [Compound 42, 3-(7-(4-fluorophenyl)-3H-imidazo[4,5-b]pyridin-2-yl)-5-(5-(pyrrolidin-1-ylmethyl)pyridin-3-yl)-1H-pyrazolo[4,3-b]pyridine], in experiment [1], the EC50 was above 10 µM and the inhibition at 10 µM turned out to be 46.1%. In experiment [2], the EC50 was determined as 1.85 µM.

`O=C(Nc1cncc(-c2ccc3[nH]nc(-c4nc5c(-c6ccc(F)cc6)ccnc5[nH]4)c3n2)c1)C1CCC1` [Compound 49, N-(5-(3-(7-(4-fluorophenyl)-3H-imidazo[4,5-b]pyridin-2-yl)-1H-pyrazolo [4,3-b]pyridin-5-yl)pyridin-3-yl)cyclobutanecarboxamide]: in experiment [1], the EC50 is above 10 µM and the inhibition at 10 µM was 44%. The same compound gave an EC50 in experiment [2] of 1.37 µM.

In the case of `CC(C)(C)CC(=O)Nc1cncc(-c2ccc3[nH]nc(-c4nc5c(-c6ccccc6F)ccnc5[nH]4)c3n2)c1` [Compound 72, N-(5-(3-(7-(2-fluorophenyl)-3H-imidazo[4,5-b]pyridin-2-yl)-1H-pyrazolo [4,3-b]pyridin-5-yl)pyridin-3-yl)-3,3-dimethylbutanamide], the EC50 in experiment [1] and in experiment [2] was above 10 µM throughout. The inhibition at 10 µM in experiment [1] was determined as 27.8%; in experiment [2], 0%.

As for `Fc1ccccc1-c1ccnc2[nH]c(-c3n[nH]c4ccc(-c5ccccn5)nc34)nc12` [Compound 84, 3-(7-(2-Fluorophenyl)-3H-imidazo[4,5-b]pyridin-2-yl)-5-(pyridin-2-yl)-1H-pyrazolo[4,3-b]pyridine], in experiment [1], the EC50 is above 10 µM and the inhibition at 10 µM was determined as 23%. In addition, in experiment [2], the EC50 is above 10 µM and the inhibition at 10 µM came out at 29.4%.

On to `c1cncc(-c2ccc3[nH]nc(-c4nc5c(-c6cccnc6)ccnc5[nH]4)c3n2)c1` [Compound 88, 5-(pyridin-3-yl)-3-(7-(pyridin-3-yl)-3H-imidazo[4,5-b]pyridin-2-yl)-1H-pyrazolo [4,3-b]pyridine], for which the EC50 in experiment [1] was above 10 µM; in experiment [2], 0.747 µM. Also, in experiment [1], the inhibition at 10 µM came to 36.6%.

Consider `CC(C)Nc1cncc(-c2ccc3[nH]nc(-c4nc5c(-c6cccnc6)ccnc5[nH]4)c3n2)c1` [Compound 96, N-isopropyl-5-(3-(7-(pyridin-3-yl)-3H-imidazo[4,5-b]pyridin-2-yl)-1H-pyrazolo[4,3-b]pyridin-5-yl)pyridin-3-amine], for which the figures for the EC50 in experiment [1] and in experiment [2] were 0.424 µM and 1.77 µM, respectively.

Turning to `O=C(Nc1cncc(-c2ccc3[nH]nc(-c4nc5c(N6CCCCC6)ccnc5[nH]4)c3n2)c1)C1CC1` [Compound 188, N-(5-(3-(7-(Piperidin-1-yl)-3H-imidazo[4,5-b]pyridin-2-yl)-1H-pyrazolo [4,3-b]pyridin-5-yl)pyridin-3-yl)cyclopropanecarboxamide], in experiment [1], the EC50 was above 10 µM and the inhibition at 10 µM worked out at 28%. Further, in experiment [2], the EC50 was above 10 µM and the inhibition at 10 µM was determined as 0%.

For `Cc1ccncc1-c1ccc2[nH]nc(-c3nc4c(-c5ccsc5)ccnc4[nH]3)c2n1` [Compound 285, 5-(4-methylpyridin-3-yl)-3-(7-(thiophen-3-yl)-3H-imidazo[4,5-b]pyridin-2-yl)-1H-pyrazolo[4,3-b]pyridine], the EC50 stood at 9.88 µM in experiment [1] and 2.05 µM in experiment [2].

`O=C(Nc1cncc(-c2ccc3[nH]nc(-c4nc5c(-c6ccsc6)ccnc5[nH]4)c3n2)c1)c1ccccc1` [Compound 291, N-(5-(3-(7-(Thiophen-3-yl)-3H-imidazo[4,5-b]pyridin-2-yl)-1H-pyrazolo [4,3-b]pyridin-5-yl)pyridin-3-yl)benzamide]: in experiment [1], the EC50 was above 10 µM and the inhibition at 10 µM came out at 21%. Moreover, in experiment [2], the EC50 was above 10 µM and the inhibition at 10 µM was found to be 42.5%.

As to `CCCC(=O)Nc1cncc(-c2ccc3[nH]nc(-c4nc5c(-c6ccsc6)ccnc5[nH]4)c3n2)c1` [Compound 297, N-(5-(3-(7-(thiophen-3-yl)-3H-imidazo[4,5-b]pyridin-2-yl)-1H-pyrazolo[4,3-b]pyridin-5-yl)pyridin-3-yl)butyramide], the EC50 in experiment [1] came to 9.91 µM; in experiment [2] it was 0.41 µM.

As to `FC1(F)CCN(Cc2cncc(-c3ccc4[nH]nc(-c5nc6c(-c7ccsc7)ccnc6[nH]5)c4n3)c2)C1` [Compound 306, 5-(5-((3,3-difluoropyrrolidin-1-yl)methyl)pyridin-3-yl)-3-(7-(thiophen-3-yl)-3H-imidazo[4,5-b]pyridin-2-yl)-1H-pyrazolo[4,3-b]pyridine], the EC50 in experiment [1] came out at 1.33 µM; in experiment [2] it was 0.165 µM.

On to `CCNCc1cncc(-c2ccc3[nH]nc(-c4nc5c(-c6ccoc6)ccnc5[nH]4)c3n2)c1` [Compound 314, N-((5-(3-(7-(furan-3-yl)-3H-imidazo[4,5-b]pyridin-2-yl)-1H-pyrazolo[4,3-b]pyridin-5-yl)pyridin-3-yl)methyl)ethanamine], for which, in experiment [1], the EC50 was above 10 µM and the inhibition at 10 µM came to 23.9%. In experiment [2], the EC50 is above 10 µM and the inhibition at 10 µM amounted to 0%.

On to `CC(C)Nc1cncc(-c2ccc3[nH]nc(-c4nc5c(-c6ccoc6)ccnc5[nH]4)c3n2)c1` [Compound 320, 5-(3-(7-(furan-3-yl)-3H-imidazo[4,5-b]pyridin-2-yl)-1H-pyrazolo[4,3-b]pyridin-5-yl)-N-isopropylpyridin-3-amine], for which the figures for the EC50 in experiment [1] and in experiment [2] were 0.456 µM and 0.277 µM, respectively.

Consider `CCCCC(=O)Nc1cncc(-c2ccc3[nH]nc(-c4nc5c(-c6ccoc6)ccnc5[nH]4)c3n2)c1` [Compound 327, N-(5-(3-(7-(furan-3-yl)-3H-imidazo[4,5-b]pyridin-2-yl)-1H-pyrazolo[4,3-b]pyridin-5-yl)pyridin-3-yl)pentanamide], for which, in experiment [1], the EC50 is above 10 µM and the inhibition at 10 µM is 42.4%. Besides, it took 0.277 µM to reach a half-maximal effect in experiment [2] (EC50).

Regarding `CN(C)Cc1cncc(-c2ccc3[nH]nc(-c4nc5c(-c6cccs6)ccnc5[nH]4)c3n2)c1` [Compound 349, N,N-dimethyl-1-(5-(3-(7-(thiophen-2-yl)-3H-imidazo[4,5-b]pyridin-2-yl)-1H-pyrazolo[4,3-b]pyridin-5-yl)pyridin-3-yl)methanamine], the EC50 in experiment [1] turned out to be 4.78 µM; in experiment [2], 1.42 µM.

Regarding `O=C(Nc1cncc(-c2ccc3[nH]nc(-c4nc5c(-c6cccs6)ccnc5[nH]4)c3n2)c1)C1CC1` [Compound 356, N-(5-(3-(7-(Thiophen-2-yl)-3H-imidazo[4,5-b]pyridin-2-yl)-1H-pyrazolo [4,3-b]pyridin-5-yl)pyridin-3-yl)cyclopropanecarboxamide], the EC50 is above 10 µM in experiment [1] and 4.86 µM in experiment [2]. In addition, the inhibition at 10 µM in experiment [1] was 38%.

In the case of `Cc1ccc(-c2ccnc3[nH]c(-c4n[nH]c5ccc(-c6cncc(N)c6)nc45)nc23)s1` [Compound 395, 5-(3-(7-(5-methylthiophen-2-yl)-3H-imidazo[4,5-b]pyridin-2-yl)-1H-pyrazolo[4,3-b]pyridin-5-yl)pyridin-3-amine], the values for the EC50 in experiment [1] and in experiment [2] were 0.25 µM and 0.097 µM, respectively.

Regarding `Cc1ccc(-c2ccnc3[nH]c(-c4n[nH]c5ccc(-c6cncc(NC(=O)C(C)C)c6)nc45)nc23)s1` [Compound 401, N-(5-(3-(7-(5-methylthiophen-2-yl)-3H-imidazo[4,5-b]pyridin-2-yl)-1H-pyrazolo[4,3-b]pyridin-5-yl)pyridin-3-yl)isobutyramide], the EC50 in experiment [1] came out at 0.161 µM; in experiment [2], 0.158 µM.

For `CC(C)Nc1cncc(-c2ccc3[nH]nc(-c4nc5c(-c6cc(F)cc(NCCN(C)C)c6)ccnc5[nH]4)c3n2)c1` [Compound 460, N^1-(3-fluoro-5-(2-(5-(5-(isopropylamino)pyridin-3-yl)-1H-pyrazolo[4,3-b]pyridin-3-yl)-3H-imidazo[4,5-b]pyridin-7-yl)phenyl)-N^2,N^2-dimethylethane-1,2-diamine], the values for the EC50 in experiment [1] and in experiment [2] were 1.8 µM and 2.45 µM, respectively.
